Measured values as given in patent publication US8445466B2, “Stable aqueous compositions comprising amide-protected bioactive creatine species and uses thereof” (priority 2010, dated 2013).
One block for each compound: values may come before it.

Assays:
[1] = tested on: patients with idiopathic PD; conditions: 20 g/d for the first 5 days and 5 g/d thereafter, 24 sessions of resistance training; cited from earlier work
[2] = Conversion of creatine to creatinine in aqueous solutions; assay type: physicochemical; conditions: aqueous solution 0.250 mg/mL
[3] = tested on: Division IA college football players; conditions: up to 21-months; 15.75 g/day for five days, average 5 g/day thereafter; cited from earlier work
[4] = tested on: small cohorts of athletes; conditions: oral; short term (5 days), medium term (9 weeks) and long term (up to 5 years); cited from earlier work
[5] = tested on: highly trained adolescent (mean age 16) fin swimmers; conditions: five days of supplementation; cited from earlier work
[6] = tested on: young adult, vegetarian subjects; conditions: oral, 5 grams daily for six weeks, 45 subjects; cited from earlier work
[7] = cited from earlier work
[8] = cited from earlier work; remark: listed apart in the source
[9] = tested on: patients with McArdle disease; conditions: cited from earlier work
[10] = tested on: person with myasthenia gravis; conditions: 5 grams daily with resistance training 3× per week for 15 weeks; cited from earlier work
[11] = Stability of creatyl-L-glutamine formulations on storage in glass vials, HPLC assay of C-L-G and creatinine; assay type: physicochemical
Description: Specifically exemplified herein are three different formulations prepared using stable creatyl-L-glutamine (C-L-G) at a concentration of 1.00 mg/ml between pH 3.0 to 7.0. These formulations are described below.
The above described formulations were stored in glass vials at room temperature (25° C., 77° F.), at refrigerator temperature (4° C., 39° F.) and at elevated temperature (40° C., 104° F.) in vials. These samples were assayed by HPLC at periodic intervals for minimum of 60 days for creatyl-L-glutamine (C-L-G) and creatinine (degradation product of creatine) content. The % recovery results are presented below.

Compound: CN(CC(=O)O)C(=N)N.O [Creatine Monohydrate, creatine monohydrate]
biceps curl strength [1]: significantly improved
chest press strength [1]: significantly improved
COP Assay ([2]; pH 3.0, 25 C.°, 39 Days): 0.072 mg/mL
Creatinine ([2]; pH 3.0, 25 C.°, 39 Days): 0.154 mg/mL
COP Assay ([2]; pH 3.0, 25 C.°, 3 day): 0.219 mg/ml mg/mL
Creatinine ([2]; pH 3.0, 25 C.°, 3 day): 0.026 mg/mL
COP Assay ([2]; pH 3.0, 25 C.°, 10 days): 0.214 mg/mL
Creatinine ([2]; pH 3.0, 25 C.°, 10 days): 0.072 mg/ml mg/mL
COP Assay ([2]; pH 3.0, 25 C.°, 21 days): 0.151 mg/mL
Creatinine ([2]; pH 3.0, 25 C.°, 21 days): 0.111 mg/mL
COP Assay ([2]; pH 3.0, 25 C.°, INITIAL): 0.245 mg/mL
Creatinine ([2]; pH 3.0, 25 C.°, INITIAL): 0.000 mg/mL
COP Assay ([2]; pH 3.0, 40 C.°, 39 Days): 0.030 mg/mL
Creatinine ([2]; pH 3.0, 40 C.°, 39 Days): 0.186 mg/mL
COP Assay ([2]; pH 3.0, 40 C.°, 3 day): 0.091 mg/ml mg/mL
Creatinine ([2]; pH 3.0, 40 C.°, 3 day): 0.125 mg/mL
COP Assay ([2]; pH 3.0, 40 C.°, 10 days): 0.036 mg/mL
Creatinine ([2]; pH 3.0, 40 C.°, 10 days): 0.177 mg/ml mg/mL
COP Assay ([2]; pH 3.0, 40 C.°, 21 days): 0.029 mg/mL
Creatinine ([2]; pH 3.0, 40 C.°, 21 days): 0.186 mg/mL
COP Assay ([2]; pH 3.0, 40 C.°, INITIAL): 0.245 mg/mL
Creatinine ([2]; pH 3.0, 40 C.°, INITIAL): 0.000 mg/mL
COP Assay ([2]; pH 7.0, 40 C.°, 31 Days): 0.251 mg/mL
Creatinine ([2]; pH 7.0, 40 C.°, 31 Days): 0.068 mg/mL
COP Assay ([2]; pH 7.0, 40 C.°, 3 day): 0.242 mg/ml mg/mL
Creatinine ([2]; pH 7.0, 40 C.°, 3 day): 0.008 mg/mL
COP Assay ([2]; pH 7.0, 40 C.°, INITIAL): 0.257 mg/mL
Creatinine ([2]; pH 7.0, 40 C.°, INITIAL): 0.000 mg/mL

Compound: CN(CC(=O)O)C(=N)N [creatine, 2-(carbamimidoyl-methyl-amino) acetic acid]
adverse effect in long-term supplementation [3]: No adverse effect
adverse effects on renal function [4]: No adverse effects
dynamic strength [5]: enhances
performance in consecutive maximal swims [5]: improves
intelligence (Raven's Advanced Progressive Matrices) [6]: significantly improves
working memory (backward digit span) [6]: significantly improves
average increase in muscle strength, greater than following placebo ingestion ([7]; 22 published studies, during resistance training): 8%
average increase in muscle strength following creatine supplementation during resistance training ([7]; 22 published studies, placebo 12%): 20%
average increase in weightlifting performance, greater than following placebo ingestion ([7]; during resistance training): 14%
average increase in weightlifting performance (maximal repetitions at a given percent of maximal strength) ([7]; during resistance training, placebo 12%): 26%
adverse health effect ([7]; short- or long-term creatine supplementations): no adverse health effect
degradation in the GI tract into creatinine, estimated rate ([8]; GI tract): ~0.1 g of a 5 g dose per hour
non-enzymatic conversion into creatinine ([8]; typical 70 kg individual): approximately 1.7 % daily
skeletal muscle function [9]: improves
improved peak strength [10]: up to 37%
increase in body weight [10]: 7%
increase in fat free mass [10]: 4%

time composition is stable ([11]; elevated temperature (40° C., 104° F.)): more than 30 days
time aqueous solutions remain stable ([11]; refrigerator temperature (4° C., 39° F.)): more than 90 days
time aqueous solutions remain stable ([11]; room temperature (25° C., 77° F.)): more than 90 days
Compound: CN(CC(=O)N[C@@H](CCC(N)=O)C(=O)O)C(=N)N [creatyl-L-glutamine]

Compound: disodium creatine phosphate tetrahydrate
Creatine Monohydrate ([2]; pH 3.0, 25 C.°, 39 Days): 0.031 mg/mL
Creatinine ([2]; pH 3.0, 25 C.°, 39 Days): 0.069 mg/mL
Creatine Monohydrate ([2]; pH 3.0, 25 C.°, 3 day): 0.095 mg/mL
Creatinine ([2]; pH 3.0, 25 C.°, 3 day): 0.014 mg/mL
Creatine Monohydrate ([2]; pH 3.0, 25 C.°, 10 days): 0.092 mg/mL
Creatinine ([2]; pH 3.0, 25 C.°, 10 days): 0.034 mg/mL
Creatine Monohydrate ([2]; pH 3.0, 25 C.°, 21 days): 0.065 mg/mL
Creatinine ([2]; pH 3.0, 25 C.°, 21 days): 0.050 mg/ml mg/mL
Creatine Monohydrate ([2]; pH 3.0, 25 C.°, INITIAL): 0.000 mg/ml mg/mL
Creatinine ([2]; pH 3.0, 25 C.°, INITIAL): 0.000 mg/mL
Creatine Monohydrate ([2]; pH 3.0, 40 C.°, 39 Days): 0.012 mg/ml mg/mL
Creatinine ([2]; pH 3.0, 40 C.°, 39 Days): 0.081 mg/mL
Creatine Monohydrate ([2]; pH 3.0, 40 C.°, 3 day): 0.042 mg/mL
Creatinine ([2]; pH 3.0, 40 C.°, 3 day): 0.054 mg/mL
Creatine Monohydrate ([2]; pH 3.0, 40 C.°, 10 days): 0.017 mg/mL
Creatinine ([2]; pH 3.0, 40 C.°, 10 days): 0.086 mg/mL
Creatine Monohydrate ([2]; pH 3.0, 40 C.°, 21 days): 0.011 mg/mL
Creatinine ([2]; pH 3.0, 40 C.°, 21 days): 0.080 mg/ml mg/mL
Creatine Monohydrate ([2]; pH 3.0, 40 C.°, INITIAL): 0.004 mg/mL
Creatinine ([2]; pH 3.0, 40 C.°, INITIAL): 0.000 mg/mL
Creatine Monohydrate ([2]; pH 7.0, 25 C.°, 39 Days): 0.089 mg/mL
Creatinine ([2]; pH 7.0, 25 C.°, 39 Days): 0.000 mg/mL
Creatinine ([2]; pH 7.0, 25 C.°, 3 day): 0.000 mg/mL
Creatine Monohydrate ([2]; pH 7.0, 25 C.°, 10 days): 0.041 mg/mL
Creatinine ([2]; pH 7.0, 25 C.°, 10 days): 0.000 mg/mL
Creatine Monohydrate ([2]; pH 7.0, 25 C.°, 21 days): 0.069 mg/mL
Creatinine ([2]; pH 7.0, 25 C.°, 21 days): 0.000 mg/ml mg/mL
Creatine Monohydrate ([2]; pH 7.0, 25 C.°, INITIAL): 0.00 mg/mL
Creatinine ([2]; pH 7.0, 25 C.°, INITIAL): 0.000 mg/mL
Creatine Monohydrate ([2]; pH 7.0, 40 C.°, 39 Days): 0.108 mg/mL
Creatinine ([2]; pH 7.0, 40 C.°, 39 Days): 0.030 mg/mL
Creatine Monohydrate ([2]; pH 7.0, 40 C.°, 3 day): 0.042 mg/mL
Creatinine ([2]; pH 7.0, 40 C.°, 3 day): 0.004 mg/mL
Creatine Monohydrate ([2]; pH 7.0, 40 C.°, 10 days): 0.114 mg/mL
Creatinine ([2]; pH 7.0, 40 C.°, 10 days): 0.012 mg/mL
Creatine Monohydrate ([2]; pH 7.0, 40 C.°, 21 days): 0.122 mg/mL
Creatinine ([2]; pH 7.0, 40 C.°, 21 days): 0.020 mg/ml mg/mL
Creatine Monohydrate ([2]; pH 7.0, 40 C.°, INITIAL): 0.00 mg/mL
Creatinine ([2]; pH 7.0, 40 C.°, INITIAL): 0.000 mg/mL
